In patent US20260199193A1, “POWDERY SOLID COSMETIC” (Shiseido Company, Ltd., priority 2022, published 2026):
Peptide text beside a SMILES is read from it.

Assay: log P value (octanol/water partition coefficient)
Assay type: physicochemical
Conditions: octanol / aqueous buffer solution at pH 7
Excerpt: The log P value of the nonionic water-soluble agent may be 1.8 or less, 1.5 or less, 1.3 or less, or 1.0 or less, and may be −4.0 or more, −3.8 or more, −3.5 or more, −3.3 or more, −3.0 or more, −2.7 or more, or −2.5 or more. The “log P value” herein is a parameter that represents the tendencies of partitioning of a substance into water and octanol, and is a value commonly used as an index to determine the degree of hydrophilicity or hydrophobicity of a substance. The smaller the log P value, the more hydrophilic the substance is meant to be. The larger the log P value, the more hydrophobic the substance is meant to be. The log P value may also be referred to as “octanol/water partition coefficient” according to the method of its calculation. The octanol/water partition coefficient can be determined by adding an agent into a flask containing octanol and an aqueous buffer solution at pH 7, shaking the flask, and then performing calculation according to the following Equation A based on the agent concentration in each phase: […]
In the case of `CC(O)CCO` (stereo not drawn) [1,3-butylene glycol], the logP is reported as -0.4. Work on `O=C1NCCN1CCO` [1-(2-hydroxyethyl)-2-imidazolidinone] yielded a logP of -1.4. `CCOC1=C(O)[C@@H]([C@@H](O)CO)OC1=O` [2-O-ethyl ascorbic acid] gave a logP of -1.5. `OCC(O)CO` [Glycerin] gave a logP of -1.8. For `O=C1O[C@H]([C@@H](O)CO)C(O)=C1O` [L-ascorbic acid], the logP was 1.6. `Nc1ncnc2c1ncn2[C@@H]1O[C@H](CO)[C@@H](O)[C@H]1O` [adenosine] showed a logP of -1.1. Work on `OC[C@H]1O[C@@H](Oc2ccc(O)cc2)[C@H](O)[C@@H](O)[C@@H]1O` [arbutin] yielded a logP of -0.7. For `NCC(=O)NCC(=O)O` [glycylglycine] (H-Gly-Gly-OH), the logP was -2.3. For `NC(=O)c1cccnc1` [niacinamide], the logP was -0.4. In the case of `Cc1ncc(CO)c(CO)c1O` [pyridoxine], the logP is reported as -0.8. `NCCS(=O)(=O)O` [taurine] showed a logP of 1.4. In the case of `NC[C@H]1CC[C@H](C(=O)O)CC1` [tranexamic acid, reference compound], the logP is reported as -2. With `OC[C@H]1O[C@H](O[C@H]2O[C@H](CO)[C@@H](O)[C@H](O)[C@H]2O)[C@H](O)[C@@H](O)[C@@H]1O` [trehalose] the logP was -1.7. Compound `C[N+](C)(C)CC(=O)[O-]` [trimethylglycine] has a logP of 0.1. `OC[C@@H](O)[C@H](O)[C@@H](O)CO` [xylitol] gave a logP of -2.5.
